Reference: article PMC2267855, “Site-directed mutagenesis of Arginine282 suggests how protons and peptides are co-transported by rabbit PepT1” (The International Journal of Biochemistry & Cell Biology, 2008)
Where a SMILES comes first, the peptide text is derived from it.

Molecular target: T1, R282E-PepT1 (Oryctolagus cuniculus, UniProt P36836, R282E)
T1 construct: expressed in transfected cells; host or cells: Xenopus laevis oocytes injected with cRNA
T1 sequence (P36836 1-707 R282E): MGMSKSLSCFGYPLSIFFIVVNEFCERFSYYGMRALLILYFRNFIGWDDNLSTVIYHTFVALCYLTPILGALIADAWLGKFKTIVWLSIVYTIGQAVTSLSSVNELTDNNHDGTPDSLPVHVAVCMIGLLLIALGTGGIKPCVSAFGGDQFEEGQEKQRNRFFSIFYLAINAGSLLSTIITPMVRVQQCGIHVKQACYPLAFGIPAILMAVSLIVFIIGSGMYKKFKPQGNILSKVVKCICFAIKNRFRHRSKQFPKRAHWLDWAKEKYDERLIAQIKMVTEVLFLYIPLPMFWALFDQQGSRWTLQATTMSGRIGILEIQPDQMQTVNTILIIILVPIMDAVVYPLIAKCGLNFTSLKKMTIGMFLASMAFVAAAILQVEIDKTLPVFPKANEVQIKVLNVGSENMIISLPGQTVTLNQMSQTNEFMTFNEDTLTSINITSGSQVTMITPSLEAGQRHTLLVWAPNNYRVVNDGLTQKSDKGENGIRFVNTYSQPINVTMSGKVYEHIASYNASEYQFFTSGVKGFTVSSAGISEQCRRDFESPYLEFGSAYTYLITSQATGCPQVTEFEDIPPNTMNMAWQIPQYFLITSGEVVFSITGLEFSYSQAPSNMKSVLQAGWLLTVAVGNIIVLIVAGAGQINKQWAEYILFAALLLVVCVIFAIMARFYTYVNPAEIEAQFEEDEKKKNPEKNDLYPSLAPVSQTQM
Assay: Inhibition of [3H]-D-Phe-L-Gln uptake into Xenopus oocytes expressing R282E-PepT1 (competition, Ki)
Format: cell-based, rabbit
Details: pHout 5.5, 0.4 μM [3H]-D-Phe-L-Gln
Method: Zero-trans uptake of [^3H]-D-Phe-L-Gln (17.4 Ci/mmole, custom synthesised, Cambridge Research Biochemicals, Stockton-on-Tees, UK) was performed as previously described ([Meredith, 2004]). Briefly, 5 oocytes were incubated in 100 μl of uptake medium (95 mM NaCl, 2 mM KCl, 1 mM CaCl2, 0.42 mM MgCl2, 10 mM Tris/Hepes pH 7.4 or Tris/Mes pH 5.5) with tracer (0.4 μM) [^3H]-D-Phe-L-Gln. After incubation, the oocytes were washed sequentially five times in 1 ml of ice-cold 120 mM NaCl solution, lysed individually with 100 μl 2% (w/v) SDS and liquid scintillation counted. As a control non-injected oocytes were also incubated in uptake medium with [^3H]-D-Phe-L-Gln as above.
The affinity of wild-type and mutant PepT1 were assessed by competition studies with 0.4 μM [^3H]-D-Phe-L-Gln and Gly-L-Gln present in the uptake medium in concentrations from 0 to 2 mM using the protocol above, and the Ki calculated using the method of [Deves and Boyd (1989)].

Ki: 350 ± 170 µM
Compound: NCC(=O)N[C@@H](CCC(N)=O)C(=O)O [Gly-L-Gln] (H-Gly-Gln-OH)
